Results: patent US6649634B2, “Substituted N-( indole-2-carbonyl-) amides and derivatives as glycogen phosphorylase inhibitors” (Pfizer, Inc., priority 1995, dated 2003)

melting point: 192 to 192.5 °C
SMILES: CON(C)C(=O)C(O)CNC(=O)c1cc2cc(Cl)ccc2[nH]1 (racemic) [Example 30, 5-Chloro-1H-indole-2-carboxylic acid [(2RS)-hydroxy-2-(methoxy-methyl-carbamoyl)-ethyl]-amide]
